In a melting point compilation (Tetko et al.; mined from patent text by program, amines drawn as free bases though some values may be those of a salt) one finds melting point data, which are given here for 89 compounds.

As usually defined, the melting point is the temperature, or range, at which the solid turns liquid.

Turning to `COC(=O)C1=NN(c2ccccc2)C(C(=O)OC)=NN1c1ccccc1`, the melting point is 171 to 172 °C. Under `c1ccc(CCC2CCN(Cc3nc4ccccc4[nH]3)CC2)cc1` stands 170 °C.

Turning to `CCC1CCCCN1C(=O)C=Cc1c(-c2cccc(NC(=O)OC)c2)nn2ccccc12` (centres undefined), the melting point fell in the range of 143 to 145 °C.

`Cn1c2ccc(Br)cc2c2sccc(=O)c21` gave a melting point of 243 to 244 °C. As for `CCCc1nc2cc3c(cc2[nH]1)NC(=O)C3(C)C`, the figure is 284 to 285 °C. Under `CCOC(=O)Cc1ccc2c(c1)C(O)C(NC(=O)OC)CC2` (centres undefined) stands 99 to 100 °C. As for `CCOC(=O)c1cn2c(C)nnc2cc1Nc1ccc(I)cc1F`, the figure is 201 to 204 °C. `C[C@H](C#Cc1ccc(Cc2ccccc2)s1)N(O)C(N)=O` had a melting point of 140 to 142 °C. Under `CCCc1cnc(NC(=O)C(c2ccccc2)c2ccccc2)o1` stands 122 °C; under `CNC(C)=C(C#N)C(=O)c1ccc(Cl)cc1`, 152 °C; under `CC(=O)OC1CSC(Oc2ccc(I)nc2Cl)C(OC(C)=O)C1OC(C)=O` (centres undefined), 188 °C. As for `O=c1[nH]c2scc(C3CCCCC3)c2[nH]c1=O`, the figure is greater than 270 °C; as for `O=C(Nc1cccc(Cl)c1)c1ccccc1CN1C(=O)C2(COc3cc4c(cc32)CCO4)c2ccccc21` (centres undefined), greater than 230 °C. Under `C=C1c2ccccc2CC(=NO)c2ccccc21` stands 156 to 160 °C. With `CCC(=O)Oc1ccc(NC(=O)OC(C)(C)C)cc1C(=O)O`, the melting point is 137 to 142 °C.

Consider `OCc1c(CO)c(-c2ccccc2)n2c1Cc1ccccc1-2`, for which the melting point was 169 to 171 °C. Under `COC(=O)c1cccc(C)c1[N+](=O)[O-]` stands 72 °C; under `N#Cc1ccc(NC(=O)Nc2ccc(S(N)(=O)=O)cc2)cc1`, 265 to 267 °C; under `O=Cc1c(Cl)nc2ccccc2c1-c1ccc(F)cc1`, 168 to 170 °C. As for `O=C1NC2C(CC(O)C(O)C2O)c2cc3c(c(O)c21)OCO3` (centres undefined), the figure is 182 °C; as for `Cc1ccc(SCc2noc(-c3ccccc3)n2)cc1`, 71 °C.

Compound `Cc1[nH]c2ccc(O)cc2c1C(=O)NC1CCN(CCc2ccccc2)CC1` came in with a melting point of 232 to 236 °C. As for `CCC(O)c1c(C(C)C)nc(C(C)C)c(CO)c1-c1ccc(F)cc1` (centres undefined), the figure is 173 to 175 °C; as for `Cc1cccc(NC(=O)NC2N=C(C(C)C)c3ccccc3N(CC(=O)N3CC4CCC(CC4)C3)C2=O)c1` (centres undefined), 123 to 126 °C. Under `CC(C)Cc1ccc2c(c1O)C(=O)c1ccc(CC(C)C)c(O)c1C2=O` stands 188 °C; under `Cc1nc(-c2ccccc2)nc(-c2cccc([N+](=O)[O-])c2)c1C(=O)NCCCl`, 199 to 200 °C; under `CN1CCC(P(=O)(O)O)(P(=O)(O)O)N=C1N`, 308 °C.

`C/C(=N/O)[C@@H]1C[C@H](C(=O)OC(C)(C)C)N(C(=O)CNC(=O)Nc2cccc(C)c2)[C@@H]1c1ccccc1` (racemic) displayed a melting point of 166 °C.

Turning to `CCCCCCOc1ccc(-c2ncc(C#N)cn2)cc1`, the melting point is 93.5 to 93.8 °C. In the case of `CCCOc1ccc(F)cc1OCCN1C(=O)c2ccccc2C1=O`, the melting point is 102 to 103 °C.

Take `CCc1nc2c(N)nc3ccccc3c2n1CC1(O)CCCCC1`: the melting point was in the range of 217 to 218 °C. As for `CC12CCC(C1)C1(C)Oc3ccc(C(=O)Oc4ccc(C(=O)OCc5ccccc5)cc4)cc3C21C` (centres undefined), the figure is 131 to 133 °C; as for `CCN(CC)C(=O)c1cc(-c2ccc(OC)cc2)ccc1-c1ccccc1`, 117 to 118 °C. Under `CC(C)c1cc(C(C)C)c(CC(=O)NS(=O)(=O)Oc2c(C(C)C)cc(C#N)cc2C(C)C)c(C(C)C)c1` stands 79 to 84 °C; under `O=C(CC(=O)c1ccccc1)Nc1ccccc1NC(=O)CC(=O)c1ccccc1`, 202 to 204 °C. As for `CN1Cc2c(C#CC(C)(C)C)ncn2-c2ccccc2C1=O`, the figure is 148 to 150 °C.

As to `COc1ccc(COC(=O)c2ccccc2)cc1OCc1ccccc1`, the melting point amounted to 75.7 °C. Under `NC(=O)c1[nH]cnc1OC1OC(COCc2ccccc2)C(OCc2ccccc2)C1OCc1ccccc1` (centres undefined) stands 215 to 216 °C. As for `Cc1cc2c(cc1C(=O)C(C)CC(=O)O)NC(=O)CO2` (centres undefined), the figure is 170 to 172 °C; as for `O=C(Nc1ccc(Br)cc1)OC1CN2CCC1CC2` (centres undefined), 218 to 220 °C; as for `CCc1cc(C)cc(CC)c1C1C(=O)N2CCOCCN2C1=O`, 193 to 194 °C. Under `COc1cccc(-c2cc(-c3ccc(-c4c(Cc5ccccc5)sc5ccccc45)cc3)cc(Br)c2OCC(=O)O)c1` stands 88 to 90 °C; under `CC(=O)c1ccc(NC(=O)C(F)(F)F)nc1`, 147 to 149 °C.

`CSC(=NCCSCc1[nH]cnc1C)NC#N` had a melting point of 148 to 150 °C. As for `O=c1[nH]c2cc(Cl)c(Cl)c([N+](=O)[O-])c2[nH]c1=O`, the figure is 347 to 348 °C.

Take `CC(C)c1cccc(C(C)C)c1NC(=O)NCCN1CCN(CCSc2nc3ccccc3o2)CC1`: the melting point fell in the range of 152 to 153 °C. As for `Cc1ccc(-c2nc3ccc(N)cn3c2CNC(=O)CC(C)C)cc1`, the figure is 245 to 247 °C; as for `COC(C)c1ccc(-c2ccc(O)cc2)cc1` (single isomer, unassigned; (+)), 174 to 175 °C; as for `CCOC(=O)c1cc(NS(=O)(=O)c2ccc(Cl)nc2)ccc1Oc1cncc(Cl)c1`, 166 to 168 °C. As for `CCN1C(=O)C(Cl)(Cl)c2cc3sccc3cc21`, the figure is 143 to 144 °C. As for `Clc1nc(-c2ccc(Br)cc2)nc(Cl)c1-c1ccccc1`, the figure is 133 °C; as for `COC(=O)c1cc(CBr)cc(C2(C#N)CCC2)c1`, 93.9 to 94.6 °C; as for `Cc1nc(-n2cnn(Cc3ccc(OC(F)F)cc3)c2=O)sc1C(=O)NCc1cccnc1`, 151 to 152 °C. In turn, `CCC(C)C(NC(=O)OC)C(=O)NC(Cc1ccccc1)C(O)CN(Cc1ccc(-c2cncs2)cc1)NC(=O)OC(C)(C)C` (centres undefined) displayed a melting point of 163 to 166 °C.

`CS(=O)(=O)c1cc(C(=O)O)cc([N+](=O)[O-])c1Cl` yielded a melting point of 190 to 194 °C. As for `CSCOc1ccc2c(c1)CCC1C2CCC2(C)C(=O)CCC12` (centres undefined), the figure is 65 °C; as for `CCCc1nn(-c2ccc(C(F)(F)F)cn2)cc1CCC(=O)OCC`, 73 to 74 °C. As for `CC(C)(C)c1csc(-c2cc3cc(CCl)ccc3o2)n1`, the figure is 117 to 119 °C; as for `CC(C)N(C=Nc1ncc(Oc2ccc(Cl)cc2)c(Cl)n1)C(C)C`, 135 to 136 °C; as for `CCn1cnc2c(Nc3cccc(Cl)c3)nc(N3CCCC(N)C3)nc21` (centres undefined), 165 °C. Under `CNC(=O)CC1CN=C(c2cc3cc(Oc4ccc(S(C)(=O)=O)cn4)cc(OC)c3[nH]2)S1` (centres undefined) stands 207 to 209 °C. In turn, `Oc1ncnc2[nH]c(-c3ccccc3)cc12` gave a melting point greater than 300 °C.

For the compound `Oc1ccc(C(=S)N2CCOCC2)cc1`, the melting point is 205 °C. As for `O=S1(=O)NCN(C2CC2)c2c1ccc(F)c2F`, the figure is 160 to 162 °C. Under `COC(=O)CCc1cc2nc(Cl)ccc2n1S(=O)(=O)c1ccc2c(c1)CCN2C(C)=O` stands 66 °C. Under `CC(C)Cn1c(=O)n(C)c(=O)c2c(SCCCO)c(Cc3cccnc3)sc21` stands 119 to 121 °C; under `CCOC(=O)c1nc(-c2ccccc2)c(-c2ccc(=O)n(C(C)C)n2)s1`, 153 to 154 °C; under `CC(C)(C)C(NC(=O)c1ccc(-c2ccco2)cc1)NC(=NC#N)Nc1cccnc1` (centres undefined), 181 to 182 °C.

With `N#Cc1cnn2c(-c3cccc([N+](=O)[O-])c3)ccnc12`, the melting point is 244 to 246 °C. Under `Cc1cc([N+](=O)[O-])ccc1NCCNC(N)=O` stands 186 °C; under `O=C(Oc1cccc2ccccc12)c1ccc(CCl)cc1`, 93 to 96 °C. Under `COc1ccc(C)cc1NC(=O)Nc1ccc(N2CCC(C(=O)Nc3ncccc3C)CC2)cc1` stands 200 to 203 °C.

Turning to `CCn1c(=O)c2c(nc(/C=C/c3cccc(OC)c3OC)n2C)n(CC)c1=O`, the melting point fell in the range of 195 to 196 °C. Under `O=C(C=Cc1ccc(Br)cc1)c1cc(Br)ccc1[N+](=O)[O-]` stands 169 to 190 °C; under `CCOc1nc2c(N)nc3cccnc3c2n1CC1CCOCC1`, 197 to 200 °C. As to `CCCNC(=O)c1ccccc1C(c1ccc(O)cc1)c1ccc(O)cc1`, the melting point turned out to be 202 °C. The compound `Cc1ccnc(P(=O)(O)O)c1` registered a melting point of 273 °C.

With `COc1ccc(S(N)(=O)=O)cc1C(=O)Cl`, the melting point is 148 to 150 °C.

`CCN1C(=O)C(N(CC(F)(F)C(F)(F)F)C(=O)C(C)C(N)=O)COc2ccccc21` (centres undefined) returned a melting point of 152 °C. As for `CC[C@@H](O)[C@@H](CCCC(C)=O)OCc1ccccc1`, the figure is 30 to 31 °C. As for `CCCN1CCC23c4cccc(OC)c4OC2C2CCC3(C1)C(COC)C2` (centres undefined), the figure is 130 to 131 °C; as for `Nc1ccc(S(=O)(=O)c2cc(-c3ccc4ccccc4c3)nc(N3CCCC3)c2)cc1`, 244 to 246 °C. For the compound `CC(C)(C)OC(=O)[C@H](O)CCc1ccc([N+](=O)[O-])cc1`, the melting point was in the range of 41 to 42 °C. Turning to `Cn1cncc1C(c1ccc(Cl)cc1)c1ccc2c(c1)C(c1cccc(Cl)c1)SCC(=O)N2` (centres undefined), the melting point was 187 °C. Under `COc1ccc(C(=O)c2cc(Br)ccc2NC(=O)C(F)(F)F)cc1` stands 149 °C; under `CCOc1nc(=O)n(C(C)C)c(=O)[nH]1`, 170 to 171 °C; under `COc1ccc(CNc2nc(CCC(=O)O)nc3sc4c(c23)CCCC4)cc1Cl`, 135 °C. As for `C/N=C1\N(C)C(=O)C(=Cc2c[nH]c3ccccc23)N1C`, the figure is 241 to 242 °C; as for `CN1CC(C#N)C(=O)c2cc3cc(F)c(F)cc3nc21` (centres undefined), 144 °C.
